Measurements from patent US10918645B2 (LIFEARC, priority 2016, dated 2021).

How the values were obtained:
Assay type in all cases: biochemical
Details in all cases: 1 μM inhibitor concentration
[1] = target: HER4 (Homo sapiens (Human), UniProt Q15303); assay: HER4 kinase selectivity assay
Description: (§1) HER4 (5-20 mU diluted in 50 mM Tris pH 7.5, 0.1 mM EGTA, 0.1% β-mercaptoethanol, 1 mg/ml BSA) is assayed against Poly Glut Tyr in a final volume of […] containing 50 mM Tris pH 7.5, 0.1 mM EGTA, 1 mg/ml Poly Glut Tyr, 10 mM magnesium acetate and 0.005 mM [33P-γ-ATP] (50-1000 cpm/pmole) and incubated for 30 min at room temperature. Assays are stopped by addition of 5 μl of 0.5 M (3%) orthophosphoric acid and then harvested onto P81 Unifilter plates with a wash buffer of 50 mM orthophosphoric acid.

[2] = target: SYK (Homo sapiens (Human), UniProt P43405); assay: SYK kinase selectivity assay
Description: (§2) SYK (5-20 mU diluted in 50 mM Tris pH 7.5, 0.1 mM EGTA, 1 mg/ml BSA) is assayed against a substrate peptide (Poly Glut Tyr) in a final volume of 25.5 μl containing 50 mM Tris pH 7.5, 1 mg/ml substrate peptide, 10 mM magnesium acetate and 0.02 mM [33P-g-ATP] (50-1000 cpm/pmole) and incubated for 30 min at room temperature. Assays are stopped by addition of 5 μl of 0.5 M (3%) orthophosphoric acid and then harvested onto P81 Unifilter plates with a wash buffer of 50 mM orthophosphoric acid.

[3] = target: PIM1 (Homo sapiens (Human), UniProt P11309); assay: PIM1 kinase selectivity assay
PIM1, sequence (P11309 whole entry, species assumed): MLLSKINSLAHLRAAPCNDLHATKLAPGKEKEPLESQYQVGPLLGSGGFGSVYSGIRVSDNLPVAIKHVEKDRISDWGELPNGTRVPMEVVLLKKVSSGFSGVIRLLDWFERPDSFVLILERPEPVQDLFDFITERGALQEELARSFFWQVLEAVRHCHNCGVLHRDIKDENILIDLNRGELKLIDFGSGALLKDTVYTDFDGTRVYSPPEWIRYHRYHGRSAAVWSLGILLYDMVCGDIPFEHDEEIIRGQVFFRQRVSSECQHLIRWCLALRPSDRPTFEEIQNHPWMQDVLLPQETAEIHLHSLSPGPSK
Description: as §2, with “PIM1 (5-20” for “SYK (5-20”, “EGTA, 0.1% b-mercaptoethanol,” for “EGTA,”, “peptide ([…])” for “peptide (Poly Glut Tyr)”, “7.5, 0.05% b-mercaptoethanol, 300 μM” for “7.5, 1 mg/ml”

[4] = target: PKA (Homo sapiens (Human), UniProt P17612); assay: PKA kinase selectivity assay
Description: PKA (5-20 mU diluted in 20 mM MOPS pH 7.5, 1 mM EDTA, 0.01% Brij35, 0.1% b-mercaptoethanol, 1 mg/ml BSA) is assayed against Kemptide (LRRASLG) in a final volume of 25.5 μl containing 8 mM MOPS pH 7.5, 0.2 mM EDTA, 30 μM substrate peptide, 10 mM magnesium acetate and 0.005 mM [33P-g-ATP] (50-1000 cpm/pmole) and incubated for 30 min at room temperature. Assays are stopped by addition of 5 μl of 0.5 M (3%) orthophosphoric acid and then harvested onto P81 Unifilter plates with a wash buffer of 50 mM orthophosphoric acid.

[5] = target: CHK2 (Homo sapiens (Human), UniProt O96017); assay: CHK2 kinase selectivity assay
CHK2, sequence (O96017 whole entry, species assumed): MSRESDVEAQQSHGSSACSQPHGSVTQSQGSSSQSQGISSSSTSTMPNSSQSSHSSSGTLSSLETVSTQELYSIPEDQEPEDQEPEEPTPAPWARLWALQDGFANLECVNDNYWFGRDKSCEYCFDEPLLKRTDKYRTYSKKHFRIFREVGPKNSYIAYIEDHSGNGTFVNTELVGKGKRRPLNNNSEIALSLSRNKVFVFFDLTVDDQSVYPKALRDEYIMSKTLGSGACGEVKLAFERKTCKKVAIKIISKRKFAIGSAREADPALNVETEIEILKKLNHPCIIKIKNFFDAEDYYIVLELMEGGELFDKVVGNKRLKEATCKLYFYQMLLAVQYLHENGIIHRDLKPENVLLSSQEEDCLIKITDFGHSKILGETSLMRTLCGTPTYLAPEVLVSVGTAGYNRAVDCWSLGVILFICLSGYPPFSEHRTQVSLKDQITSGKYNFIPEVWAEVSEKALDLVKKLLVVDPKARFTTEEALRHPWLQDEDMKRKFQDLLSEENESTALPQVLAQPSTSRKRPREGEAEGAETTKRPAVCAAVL
Description: CHK2 (5-20 mU diluted in 20 mM MOPS pH 7.5, 1 mM EDTA, 0.1% b-mercaptoethanol, 0.01% Brij-35, 5% glycerol, 1 mg/ml BSA) is assayed against CHKtide substrate peptide ([…]) in a final volume of 25.5 μl containing 8 mM MOPS pH 7.0, 0.2 mM EDTA, 200 μM CHKtide, 10 mM magnesium acetate and 0.02 mM [33P-g-ATP](50-1000 cpm/pmole) and incubated for 30 min at room temperature Assays are stopped by addition of 5 μl of 0.5 M (3%) orthophosphoric acid and then harvested onto P81 Unifilter plates with a wash buffer of 50 mM orthophosphoric acid.

[6] = target: BRSK2 (Homo sapiens (Human), UniProt Q8IWQ3); assay: BRSK2 kinase selectivity assay
BRSK2, sequence (Q8IWQ3 whole entry, species assumed): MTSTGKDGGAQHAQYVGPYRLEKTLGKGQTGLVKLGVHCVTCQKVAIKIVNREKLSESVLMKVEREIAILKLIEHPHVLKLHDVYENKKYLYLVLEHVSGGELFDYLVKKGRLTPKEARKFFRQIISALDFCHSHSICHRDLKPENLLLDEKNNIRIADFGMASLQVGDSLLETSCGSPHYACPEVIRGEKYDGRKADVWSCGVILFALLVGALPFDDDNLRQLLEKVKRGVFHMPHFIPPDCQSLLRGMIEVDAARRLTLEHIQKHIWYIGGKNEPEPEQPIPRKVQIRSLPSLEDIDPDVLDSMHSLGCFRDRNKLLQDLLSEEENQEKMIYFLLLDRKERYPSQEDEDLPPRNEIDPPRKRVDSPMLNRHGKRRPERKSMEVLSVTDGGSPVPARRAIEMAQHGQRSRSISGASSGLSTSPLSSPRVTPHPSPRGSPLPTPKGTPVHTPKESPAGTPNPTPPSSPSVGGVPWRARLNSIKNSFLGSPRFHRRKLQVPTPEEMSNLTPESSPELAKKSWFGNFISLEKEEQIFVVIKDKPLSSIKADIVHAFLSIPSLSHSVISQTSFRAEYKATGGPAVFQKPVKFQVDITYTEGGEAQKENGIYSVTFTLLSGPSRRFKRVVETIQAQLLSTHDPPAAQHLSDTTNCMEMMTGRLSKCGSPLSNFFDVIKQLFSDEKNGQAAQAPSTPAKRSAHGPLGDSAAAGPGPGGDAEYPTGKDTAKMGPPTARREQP
Description: as §2, with “BRSK2 (5-20” for “SYK (5-20”, “EGTA, 0.1% b-mercaptoethanol,” for “EGTA,”, “peptide ([…])” for “peptide (Poly Glut Tyr)”, “7.5, 0.05% b-mercaptoethanol, 300 μM” for “7.5, 1 mg/ml”, “and 0.05” for “and 0.02”

[7] = target: TTK (Homo sapiens (Human), UniProt P33981); assay: TTK kinase selectivity assay
TTK, sequence (P33981 whole entry, species assumed): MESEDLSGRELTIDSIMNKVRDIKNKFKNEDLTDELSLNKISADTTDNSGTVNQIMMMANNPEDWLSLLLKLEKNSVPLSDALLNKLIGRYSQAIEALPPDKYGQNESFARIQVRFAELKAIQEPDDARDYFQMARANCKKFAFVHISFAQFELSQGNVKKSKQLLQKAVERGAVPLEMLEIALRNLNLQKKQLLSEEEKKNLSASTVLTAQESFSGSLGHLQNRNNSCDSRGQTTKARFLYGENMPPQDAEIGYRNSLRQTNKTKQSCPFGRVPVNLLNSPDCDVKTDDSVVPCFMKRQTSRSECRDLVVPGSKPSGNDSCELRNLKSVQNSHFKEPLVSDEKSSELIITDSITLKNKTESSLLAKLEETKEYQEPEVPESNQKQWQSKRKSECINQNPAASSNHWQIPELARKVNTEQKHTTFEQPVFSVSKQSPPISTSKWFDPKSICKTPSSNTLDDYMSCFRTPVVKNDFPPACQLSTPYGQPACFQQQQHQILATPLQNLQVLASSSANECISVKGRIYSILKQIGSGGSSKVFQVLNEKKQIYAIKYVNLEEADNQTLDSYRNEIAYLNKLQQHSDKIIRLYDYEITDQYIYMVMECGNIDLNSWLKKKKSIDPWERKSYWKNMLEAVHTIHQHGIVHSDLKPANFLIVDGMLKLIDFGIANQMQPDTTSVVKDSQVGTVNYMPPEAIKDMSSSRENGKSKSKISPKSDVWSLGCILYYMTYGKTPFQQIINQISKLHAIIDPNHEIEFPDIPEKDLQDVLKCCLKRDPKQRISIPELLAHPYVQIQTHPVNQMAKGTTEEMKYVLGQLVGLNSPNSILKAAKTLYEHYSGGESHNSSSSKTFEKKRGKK
Description: as §1, with “TTK” for “HER4”, “0-mercaptoethanol,” for “β-mercaptoethanol,”, “Poly Glut Tyr” left out, “0.3 mM […],” for “1 mg/ml Poly Glut Tyr,”, “0.02” for “0.005”

[8] = target: RSK1 (Homo sapiens (Human), UniProt Q15418); assay: RSK1 kinase selectivity assay
Description: MAPKAP-K1a (5-20 mU diluted in 20 mM MOPS pH 7.5, 1 mM EDTA, 0.01% Brij35, 5% glycerol, 0.1% b-mercaptoethanol, 1 mg/ml BSA) is assayed against […] in a final volume of 25.5 μl containing 50 mM Na-b-glycerophosphate pH 7.5, 0.5 mM EDTA, 30 μM substrate peptide, 10 mM magnesium acetate and 0.05 mM [33P-g-ATP] (50-1000 cpm/pmole) and incubated for 40 min at room temperature. Assays are stopped by addition of 5 μl of 0.5 M (3%) orthophosphoric acid and then harvested onto P81 Unifilter plates with a wash buffer of 50 mM orthophosphoric acid.

[9] = target: FGF-R1 (Homo sapiens (Human), UniProt P11362); assay: FGF-R1 kinase selectivity assay
FGF-R1, sequence (P11362 22-822, species assumed): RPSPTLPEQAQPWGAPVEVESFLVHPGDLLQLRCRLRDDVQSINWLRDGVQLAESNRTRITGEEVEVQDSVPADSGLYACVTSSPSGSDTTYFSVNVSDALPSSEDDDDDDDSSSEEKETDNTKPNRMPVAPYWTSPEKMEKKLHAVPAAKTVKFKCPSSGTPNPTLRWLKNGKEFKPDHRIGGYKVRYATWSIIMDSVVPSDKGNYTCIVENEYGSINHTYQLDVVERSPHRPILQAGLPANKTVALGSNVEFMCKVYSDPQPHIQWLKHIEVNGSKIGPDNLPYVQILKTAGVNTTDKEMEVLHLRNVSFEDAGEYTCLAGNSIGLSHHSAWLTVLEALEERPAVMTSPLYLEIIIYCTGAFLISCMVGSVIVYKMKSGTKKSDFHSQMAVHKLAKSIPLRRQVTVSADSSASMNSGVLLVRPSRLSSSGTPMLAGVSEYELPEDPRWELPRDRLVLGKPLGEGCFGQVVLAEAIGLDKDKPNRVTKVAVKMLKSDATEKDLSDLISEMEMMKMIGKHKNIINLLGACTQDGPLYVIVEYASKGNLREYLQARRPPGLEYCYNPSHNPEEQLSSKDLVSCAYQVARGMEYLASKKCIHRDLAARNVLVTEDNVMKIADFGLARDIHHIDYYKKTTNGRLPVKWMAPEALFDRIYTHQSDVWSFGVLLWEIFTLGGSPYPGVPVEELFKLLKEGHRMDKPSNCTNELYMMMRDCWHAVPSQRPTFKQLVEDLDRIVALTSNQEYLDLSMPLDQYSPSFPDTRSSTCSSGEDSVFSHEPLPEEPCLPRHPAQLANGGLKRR
Description: as §2, with “FGF-R1” for “SYK”

HER4, sequence (Q15303 26-1308, species assumed): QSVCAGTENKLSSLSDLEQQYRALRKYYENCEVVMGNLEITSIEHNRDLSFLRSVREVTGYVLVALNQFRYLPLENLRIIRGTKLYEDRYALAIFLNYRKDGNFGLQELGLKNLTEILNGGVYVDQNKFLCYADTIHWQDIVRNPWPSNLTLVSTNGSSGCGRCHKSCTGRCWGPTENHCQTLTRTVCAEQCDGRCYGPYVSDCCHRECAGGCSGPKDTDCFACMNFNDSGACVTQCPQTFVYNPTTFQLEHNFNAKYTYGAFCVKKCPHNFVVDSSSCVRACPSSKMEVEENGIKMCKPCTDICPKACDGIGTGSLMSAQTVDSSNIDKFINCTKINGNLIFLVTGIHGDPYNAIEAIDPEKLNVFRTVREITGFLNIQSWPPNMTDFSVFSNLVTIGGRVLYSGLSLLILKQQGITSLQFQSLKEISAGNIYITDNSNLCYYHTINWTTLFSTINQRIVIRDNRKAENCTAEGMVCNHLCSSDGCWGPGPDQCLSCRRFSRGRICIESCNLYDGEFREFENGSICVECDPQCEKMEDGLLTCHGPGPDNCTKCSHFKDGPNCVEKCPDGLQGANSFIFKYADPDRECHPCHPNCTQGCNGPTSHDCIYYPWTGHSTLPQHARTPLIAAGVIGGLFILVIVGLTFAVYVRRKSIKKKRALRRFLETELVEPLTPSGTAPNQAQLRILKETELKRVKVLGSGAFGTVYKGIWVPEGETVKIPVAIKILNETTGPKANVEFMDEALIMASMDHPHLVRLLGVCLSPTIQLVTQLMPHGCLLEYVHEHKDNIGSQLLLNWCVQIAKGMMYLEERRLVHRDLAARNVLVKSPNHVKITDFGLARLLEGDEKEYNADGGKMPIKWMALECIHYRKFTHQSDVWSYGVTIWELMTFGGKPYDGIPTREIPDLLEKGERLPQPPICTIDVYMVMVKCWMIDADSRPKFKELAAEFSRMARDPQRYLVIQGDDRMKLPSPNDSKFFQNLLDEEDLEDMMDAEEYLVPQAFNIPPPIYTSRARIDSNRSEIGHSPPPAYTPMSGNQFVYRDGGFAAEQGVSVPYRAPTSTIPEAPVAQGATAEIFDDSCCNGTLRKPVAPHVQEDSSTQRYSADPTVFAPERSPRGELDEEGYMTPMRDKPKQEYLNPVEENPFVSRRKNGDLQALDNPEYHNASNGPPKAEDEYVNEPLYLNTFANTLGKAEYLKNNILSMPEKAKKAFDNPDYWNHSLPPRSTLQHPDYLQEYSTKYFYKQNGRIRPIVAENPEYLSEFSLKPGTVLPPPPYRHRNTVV

SMILES | percentage inhibition of HER4 [1] | percentage inhibition of SYK [2] | percentage inhibition of PIM1 [3] | percentage inhibition of PKA [4] | percentage inhibition of CHK2 [5] | percentage inhibition of BRSK2 [6] | percentage inhibition of TTK [7] | percentage inhibition of RSK1 [8] | percentage inhibition of FGF-R1 [9]
c1cc2[nH]nc3c2c(n1)N(C1CCC1)CCC3 [Example 22, 6-cyclobutyl-6,7,8,9-tetrahydro-2H-1,2,5,6-tetraazabenzo[cd]azulene] | 8 percentage | 0 percentage | 0 percentage | 0 percentage | 11 percentage | 0 percentage | 0 percentage | 0 percentage | 11 percentage
c1cc2[nH]nc3c2c(n1)N(C1CCCC1)CCC3 [Example 23, 6-cyclopentyl-6,7,8,9-tetrahydro-2H-1,2,5,6-tetraazabenzo[cd]azulene] | 3 percentage | 0 percentage | 0 percentage | 0 percentage | 0 percentage | 0 percentage | 0 percentage | 0 percentage | 19 percentage
c1cc2[nH]nc3c2c(n1)N(C1CCOCC1)CCC3 [Example 29, 6-(tetrahydro-2H-pyran-4-yl)-6,7,8,9-tetrahydro-2H-1,2,5,6-tetraazabenzo[cd]azulene] | 10 percentage | 0 percentage | 0 percentage | 0 percentage | 2 percentage | 2 percentage | 2 percentage | 10 percentage | 12 percentage
CN1CCC(N2Cc3ccccc3-c3n[nH]c4ccnc2c34)CC1 [Example 55] | 0 percentage | 0 percentage | 26 percentage | 0 percentage | 80 percentage | 50 percentage | 35 percentage | 41 percentage | 9 percentage
CC(C)n1ncc2c1CN(C1CCN(C)CC1)c1nccc3[nH]nc-2c13 [Example 68] | 1 percentage | 1 percentage | 77 percentage | 0 percentage | 53 percentage | 31 percentage | 2 percentage | 69 percentage | 35 percentage
